# EP2014168A1, “Insecticidal heterocyclic compounds” (priority 2007, dated 2009)
# Columns and labels:
# [1] = logP determination (acidic, formic acid)
# Myzus persicae [2] = assay: Myzus test (spray treatment); format: in vivo; details: foliar, read-out: Wirkung
# Source text: Myzus-Test (Spritzbehandlung)
# Zur Herstellung einer zweckmäßigen Wirkstoffzubereitung vermischt man 1 Gewichtsteil Wirkstoff mit den angegebenen Mengen Lösungsmittel und Emulgator und verdünnt das Konzentrat mit emulgatorhaltigem Wasser auf die gewünschte Konzentration.
# Chinakohlblattscheiben (Brassica pekinensis), die von allen Stadien der Grünen Pfirsichblattlaus (Myzus persicae) befallen sind, werden mit einer Wirkstoffzubereitung der gewünschten Konzentration gespritzt.
# Nach der gewünschten Zeit wird die Wirkung in % bestimmt. Dabei bedeutet 100 %, dass alle Blattläuse abgetötet wurden; 0 % bedeutet, dass keine Blattläuse, abgetötet wurden.
# Myzus persicae [3] = assay: Myzus test - oral; format: in vivo; details: read-out: Wirkung
# Source text: Lösungsmittel: 80,0 Gewichtsteile Aceton
# Zur Herstellung einer zweckmäßigen Wirkstoffzubereitung vermischt man 1 Gewichtsteil Wirkstoff mit den angegebenen Mengen Lösungsmittel und verdünnt das Konzentrat mit Wasser auf die gewünschte Konzentration.
# Gefäße werden mit allen Stadien der Grünen Pfirsichblattlaus (Myzus persicae) besetzt, durch saugen an der Wirkstoffzubereitung der gewünschten Konzentration wird behandelt.
# Nach der gewünschten Zeit wird die Wirkung in % bestimmt. Dabei bedeutet 100 %, dass alle Blattläuse abgetötet wurden; 0 % bedeutet, dass keine Blattläuse abgetötet wurden.
# physchem = details: formic acid
# [4] = 500 g/ha, spray on infested Brassica pekinensis leaf discs, 100 % = all aphids killed
# [5] = 500 g/ha, oral uptake by sucking on the active compound preparation, 100 % = all aphids killed
smiles,measurement,setting,value
"O=C(NCCCl)NC1CCc2ccsc21 (stereo not shown) [Beispiel 1, 1-(2-Chloroethyl)-3-(5,6-dihydro-4H-cyclopenta[b]thien-6-yl)-harnstoff]",logP,[1]; formic acid,1.77
Clc1cc2c(s1)C(N=C1NCCO1)CC2 (stereo not shown) [Beispiel 18],mortality at 500 g/ha,Myzus persicae [2]; [4],≥ 80%
CNC(=S)N1CCOC1=NC1CCc2ccsc21 (stereo not shown) [Beispiel 7],mortality at 500 g/ha,Myzus persicae [2]; [4],≥ 80%
"O=C(NCCCl)NC1CCc2ncccc21 (stereo not shown) [Beispiel 4, 1-(2-Chloroethyl)-3-(6,7-dihydro-5H-cyclopenta[b]pyridin-5-yl)-harnstoff]",logP,[1]; acidic,0.23
Cc1cnc2c(c1)CCC2N=C1NCCO1 (stereo not shown) [Beispiel 43],mortality at 500 g/ha,Myzus persicae [3]; po,≥ 80%
CNC(=S)N1CCOC1=NC1CCc2cc(Cl)sc21 (stereo not shown) [Beispiel 19],mortality at 500 g/ha,Myzus persicae [2]; [4],≥ 80%
CCOC(=O)CNC(=S)N1CCOC1=NC1CCc2cc(C)cnc21 (stereo not shown) [Beispiel 47],mortality at 500 g/ha,Myzus persicae [3]; [5],≥ 80%
CNC(=S)N1CCOC1=NC1CCc2ncccc21 (stereo not shown) [Beispiel 30],mortality at 500 g/ha,Myzus persicae [2]; [4],≥ 80%
CCOC(=O)CNC(=S)N1CCOC1=NC1CCc2ccsc21 (stereo not shown) [Beispiel 14],mortality at 500 g/ha,Myzus persicae [2]; [4],≥ 80%
"COCCNC(=S)N1CCO/C1=N\C1CCc2ccsc21 (stereo not shown) [Beispiel 3, (2Z)-2-(5,6-Dihydro-4H-cyclopenta[b]thien-6-ylimino)-N-(2-methoxyethyl)-1,3-oxazolidine-3-carbothioamid]",mortality at 500 g/ha,Myzus persicae [2]; [4],≥ 80%
same,logP,[1]; acidic,3.32
CNC(=S)N1CCOC1=NC1CCc2cc(C)cnc21 (stereo not shown) [Beispiel 44],mortality at 500 g/ha,Myzus persicae [3]; [5],≥ 80%
"c1cc2c(s1)C(NC1=NCCO1)CC2 (stereo not shown) [Beispiel 2, N-(5,6-Dihydro-4H-cyclopenta[b]thien-6-yl)-4,5-dihydro-1,3-oxazol-2-amin]",mortality at 500 g/ha,Myzus persicae [2]; in Brassica rapa,≥ 80%
same,logP,physchem,0.42
"COCCNC(=S)N1CCO/C1=N\C1CCc2ncccc21 (stereo not shown) [Beispiel 6, (2Z)-2-(6,7-Dihydro-5H-cyclopenta[b]pyridin-5-ylimino)-N-(2-methoxyethyl)-1,3-oxazolidine-3-carbothioamid]",mortality at 500 g/ha,Myzus persicae [2]; [4],≥ 80%
same,logP,[1]; acidic,1.03
